# Patent US20030153603A1, “Agent for enhancing accumulation of drugs in tumor tissues” (Toray Industries, Inc., priority 1999, published 2003)
# Assays:
# Format in all cases: in vivo, Donryu rats
# tumor tissue [1] = assay: Permeability of Evans Blue in tumor tissue, beraprost sodium arterially administered vs not administered; conditions: 2 μg injected into common iliac artery; A 136B solid tumor on dorsum of foot; P<0.01
# Method: (§1) A 136B cells were transplanted to dorsa of feet of Donryu rats to form solid tumors. To each of the tumor-bearing rats, 0.5 mL of solution of Evans Blue (1.5%) in physiological saline was administered i.v. and then 2 μg of beraprost sodium was injected into common iliac artery which is the tumor-controlling artery. The blood vessel perneability-increasing effect was evaluated by comparing the amounts of the accumulated Evans Blue-albumin complex in the tissue, which is the index of the blood vessel permeability in the tumor tissue, of the beraprost sodium-administered group and of the non-administered group. As a result, it was observed that by administration of 2 μg of beraprost sodium, the blood vessel permeability was increased to about 3.4 times that of the non-administered group (P<0.01). The amount of the accumulated Evans Blue was spectrophotometrically quantified after extraction with formamide at 30° C. for 48 hours.
# tumor tissue [2] = assay: Permeability of Evans Blue in various tissues, beraprost sodium intravenously administered vs not administered; conditions: 20 μg injected into the tail vein; tumor-bearing rats; P<0.05
# Method: as §1, with “hours. […] The blood vessel permeability-increasing effect was evaluated by comparing the amounts of the accumulated Evans Blue-albumin complex in the tissues of the beraprost sodium-administered group and of the non-administered group. […] The amount of the accumulated Evans Blue was quantified in the same manner as in Example 1.” for “hours.”
# tumor tissue [3] = assay: Change in blood flow in various tissues by continuous arterial injection (Doppler type blood flowmeter)
# Method: as §1, with “hours. Into common iliac artery which is the tumor-controlling artery of the tumor on the dorsum of foot of each of the tumor-bearing rats prepared in the same manner as in Examples 1 and 2, 0.3 mL of beraprost sodium solution (30 μg/mL) in middle-length fatty acid was arterially injected continuously for 1 minute. The changes in the blood flow in various tissues were measured by a Doppler type blood flowmeter. The rate of change was expressed in terms of % of the average during 10 minutes after the beginning of the arterial injection based on the average during several minutes before the arterial injection. […] This was the phenomenon brought about by the specific relaxation of the blood vessels in the tumor tissues.” for “hours.”
# tumor tissue [4] = assay: Change in blood flow in various tissues after 0.2, 2 or 20 μg beraprost sodium (Doppler type blood flowmeter); conditions: 0.2, 2 or 20 μg injected
# Method: as §1, with “hours. Into common iliac artery which is the tumor-controlling artery of the tumor on the dorsum of foot of each of the tumor-bearing rats prepared in the same manner as in Examples 1 to 3, 0.2, 2, or 20 μg of beraprost sodium was arterially injected and the change in the blood flow was measured by a Doppler type blood flowmeter. […]” for “hours.”
compound,measurement,setting,value
CC#CCC(C)[C@H](O)/C=C/C1[C@H](O)C[C@@H]2Oc3c(CCCC(=O)O)cccc3[C@H]12 (stereo partly shown) [beraprost sodium],blood vessel permeability (accumulated Evans Blue-albumin complex in tumor tissue),tumor tissue [1],about 3.4 times that of the non-administered group
same,blood vessel permeability (accumulated Evans Blue-albumin complex in the tissues),tumor tissue [2],about 1.5 times that of the non-administered group
same,blood flow in the tumor compared with kidney,"tumor tissue [3]; continuous arterial injection at 10 μg/kg/min, P<0.05",significantly more decreased than in kidney
same,blood flow in the tumor compared with kidney and liver,"tumor tissue [3]; continuous arterial injection at 17 μg/kg/min, tumor vs. liver P<0.05, tumor vs. kidney P<0.01",significantly more decreased than in kidney and in liver
same,blood flow in the tumor tissue,"tumor tissue [3]; continuous arterial injection for 1 minute into common iliac artery, average during 10 minutes after start vs before",sharply decreased dose-dependently
same,decrease in the blood flow in normal tissue organs such as liver and kidney,tumor tissue [4],not observed
same,blood flow in the tumor,tumor tissue [4]; average during 10 minutes after start vs before,Sharp decrease
